According to patent US20090186361A1, “METHODS OF PREDICTING THE PHARMACEUTICAL TOXICITY OF TAXANES” (priority 2008, published 2009):

Legend:
[1] = Toxicity Index (TI) computed from graded treatment-attributable adverse events (NCI CTC) of recipient subjects, per treatment cycle; assay type: in vivo, human; design: key to Toxicity Index TI9 Mean / Toxicity Index TI12 Mean / Toxicity Index TI13 Mean / Toxicity Index TI16 Mean / Toxicity Index TI17 Mean / Toxicity Index TI19 Mean / Toxicity Index TI1 Mean / Toxicity Index TI2 Mean / Toxicity Index TI4 Mean: weighted sum of ordered recoded CTC grades; ≥3 = DLT; details: mean over recipient subjects; for Toxicity Index TI1 Mean: cycle 1, score between 0 and 5; for Toxicity Index TI2 Mean: cycle 2; for Toxicity Index TI3 Mean: cycle 3; for Toxicity Index TI4 Mean: cycle 4; for Toxicity Index TI5 Mean: cycle 5; for Toxicity Index TI6 Mean: cycle 6; for Toxicity Index TI7 Mean: cycle 7; for Toxicity Index TI8 Mean: cycle 8; for Toxicity Index TI9 Mean: cycle 9; for Toxicity Index TI10 Mean: cycle 10; for Toxicity Index TI11 Mean: cycle 11; for Toxicity Index TI12 Mean: cycle 12; for Toxicity Index TI13 Mean: cycle 13; for Toxicity Index TI14 Mean: cycle 14; for Toxicity Index TI15 Mean: cycle 15; for Toxicity Index TI16 Mean: cycle 16; for Toxicity Index TI17 Mean: cycle 17; for Toxicity Index TI18 Mean: cycle 18; for Toxicity Index TI19 Mean: cycle 19; for Toxicity Index TI20 Mean: cycle 20; for Toxicity Index TI21 Mean: cycle 21
Source text: Recipient subject-specific characteristics, medical and treatment histories, doses of experimental agents, and graded toxicities were extracted from case report forms. Toxicity data were represented for each subject as a set of treatment-attributable adverse events, each graded (0, 1, 2, 3, or 4) according to NCI Common Toxicity Criteria (CTC). The term “toxicity profile” as used herein refers to the collection of graded toxicities observed for an individual recipient subject.
To include all trials in the same analysis, a common definition of dose limiting toxicity (DLT) was adopted. Specifically, DLT was defined as occurring whenever any one of the following was observed: grade 4 hematological toxicity (grade 4 neutropenia or thrombocytopenia of any duration); a grade 3 or 4 non-hematological toxicity (excluding nausea, vomiting, and alopecia); febrile neutropenia of any grade.
To identify risk factors and other pre-trial characteristics of interest, several ways of summarizing the toxicity profile of a given recipient subject into a single measure of overall severity were examined as described, for example in Rogatko et al., (2004) Clin. Cancer Res. 10:4645-4651, incorporated herein by reference in its entirety. A summary measure that takes into account all observed toxicity grades rather than just the most severe one was used. The summary measure, the Toxicity Index (TI), is computed according to the following algorithm: • (a) recode each hematologic toxicity as the maximum of 0 and the observed grade minus one (so that a grade 3 toxicity is dose limiting irrespective of whether or not it is hematologic). • (b) Let the toxicity grades in a subject's recoded toxicity profile be represented in descending order by the sequence X1≧X2≧ . . . ≧Xn • (c) Calculate the subject's TI score as the weighted sum of the ordered toxicity grades:
Any score greater than or equal to 3 corresponds to a DLT according to the definition given above, and the maximum toxicity grade is the integer part of the final score. […] All toxicity grades are taken into account, though lower grades will contribute less to the final score.
The score is a number between 0 and 5.
Thirty (30) recipient subjects already receiving treatment with paclitaxel were screened for the presence of SNPs in the CYP2C8 and TUBB loci. Clinical data from each of the recipient subjects was used to first calculate a Toxicity Index (TI) value for each individual according to the method presented in Example 1, above. The genotype for each recipient subject with regard to the SNPs of CYP2C8 and TUBB was determined using SNPWARE™ and single base extension according to the methods of Example 4, above.
A preliminary data analysis focused on the relationship between the Toxicity Index and the recipient subjects' demographic/genetic information. […] Univariate linear regression analysis was conducted first to find significant covariates in predicting the Toxicity Index in one of five cycles, then multivariable analysis was used to determine the best model in fitting the data. A mixed model for repeated measurement was implemented in modeling Toxicity Index in the first five cycles, and also in all cycles. Autoregressive covariance structure was used in the mixed model. SAS and Minitab were used in the analysis.

CYP2C8 gene locus = assay: Regression of Toxicity Index on CYP2C8 SNP genotype of recipient subjects; assay type: in vivo, human
Source text: The […] ™ Genotyping System features a protocol with three steps. The technology is based on single-based primer extension technology. […] SNPWARE™ reagent kits were used.
Multiplexed reactions were spatially resolved on a SNPWARE™ Tag Array plate. Each of the 384 wells in a plate contained 16 or 52 unique oligonucleotides of a known sequence, or tag. Each tag on the plate was complementary to one of the tags of the 12 or 48 extension primers, plus four controls to ensure accuracy. After transfer to the Tag Array plate, each SNP was hybridized to its complementary tag. SNPs were then identified by their position in the well.
The process involved a multiplex PCR followed by an annealing reaction of the oligonucleotide to the specific PCR product. Next the oligonucleotide was extended by a single base which was fluorescently labeled with a terminating NTP and finally detected by two-colored fluorescence specific for the allele.
For each SNP, the -PCRU and -PCRL primers were first used to amplify a relevant DNA fragment surrounding the target SNP site. The components per reaction were: H2O, 3.0 μl; 10× PCR Buffer II, 0.5 μl; MgCl2 (25 mM), 1.0 μl; dNTPs (2.5 mM each), 0.18 μl; PCR Primer Pool (2.5 μM each), 0.1 μl; [sequence] GOLD™ (5 U/μl), 0.125 μl for a total volume of 5.0 μl per reaction.
Primer -SNPU or SNPL was then used for single-base extension reaction. The thermocycler program was as follows: Step 1: 96° C. for 3 min; Step 2: 94° C. for 20 sec; Step 3: 40° C. for 11 sec; and Step 5: return to step 2 59 times, and finally to hold at 4° C.
Covariates in the analysis included recoded binary demographic variables (sex, race, site, grade, stage) and recoded binary genetic variables.
Multivariable regression analysis was used to find the best model in predicting the Toxicity Index in each of the first five cycles.

## CC(=O)O[C@@]12CO[C@@H]1C[C@H](O)[C@@]1(C)C(=O)[C@H](O)C3=C(C)[C@@H](OC(=O)[C@H](O)[C@@H](NC(=O)OC(C)(C)C)c4ccccc4)C[C@@](O)([C@@H](OC(=O)c4ccccc4)[C@H]21)C3(C)C (relative stereo) [Docetaxel, Benzenepropanoic acid, β-(((1,1-dimethylethoxy)carbonyl)amino)-α-hydroxy-, 12b-(acetyloxy)-12-(benzoyloxy)-2a,3,4,4a,5,6,9,10,11,12,12a,12b-dodecahydro-4,6,11-trihydroxy-4a,8,13,13-tetramethyl-5-oxo-7,11-methano-1H-cyclodeca(3,4)benz(1,2-b)oxet-9-yl ester trihydrate, (2aR-(2aα,4β,4aβ,6β,9(αR*,βS),11α,12α,12aα,12bα))-]
[1]
  Toxicity Index TI1 Mean: 2.727
  Toxicity Index TI2 Mean: 2.840
  Toxicity Index TI3 Mean: 2.737
  Toxicity Index TI4 Mean: 3.058
  Toxicity Index TI5 Mean: 2.669
  Toxicity Index TI6 Mean: 2.875
  Toxicity Index TI7 Mean: 2.646
  Toxicity Index TI8 Mean: 2.804
  Toxicity Index TI9 Mean: 2.438
  Toxicity Index TI10 Mean: 2.623
  Toxicity Index TI11 Mean: 2.297
  Toxicity Index TI12 Mean: 2.090
  Toxicity Index TI13 Mean: 2.404
  Toxicity Index TI14 Mean: 2.171
  Toxicity Index TI15 Mean: 2.083
  Toxicity Index TI16 Mean: 1.875
  Toxicity Index TI17 Mean: 1.875
  Toxicity Index TI18 Mean: 1.875
  Toxicity Index TI19 Mean: 2.625
  Toxicity Index TI20 Mean: 1.875
  Toxicity Index TI21 Mean: 1.875

## CC(=O)O[C@H]1C(=O)[C@@]2(C)[C@H]([C@H](OC(=O)c3ccccc3)[C@]3(O)C[C@H](OC(=O)[C@H](O)[C@@H](NC(=O)c4ccccc4)c4ccccc4)C(C)=C1C3(C)C)[C@]1(OC(C)=O)CO[C@@H]1C[C@@H]2O [Paclitaxel, (2aR,4S,4aS,6R,9S,11S,12S,12aR,12bS)-1,2a,3,4,4a,6,9,10,11,12,12a,12b-Dodecahydro-4,6,9,11,12,12b-hexahydroxy-4a,8,13,13-tetramethyl-7,11-methano-5H-cyclodeca(3,4)benz(1,2-b)oxet-5-one 6,12b-diacetate, 12-benzoate, 9-ester with (2R,3S)-N-benzoyl-3-phenylisoserine]
[1]
  Toxicity Index TI1 Mean: 2.175
  Toxicity Index TI2 Mean: 2.399
  Toxicity Index TI3 Mean: 2.491
  Toxicity Index TI4 Mean: 2.787
  Toxicity Index TI5 Mean: 2.696
  Toxicity Index TI6 Mean: 2.580
  Toxicity Index TI7 Mean: 2.529
  Toxicity Index TI8 Mean: 2.206
  Toxicity Index TI9 Mean: 2.292
  Toxicity Index TI10 Mean: 1.875
  Toxicity Index TI11 Mean: 2.583
  Toxicity Index TI12 Mean: 1.750
  Toxicity Index TI13 Mean: 1.875
  Toxicity Index TI14 Mean: 1.875
  Toxicity Index TI15 Mean: 1.875
  Toxicity Index TI16 Mean: 2.583
  Toxicity Index TI17 Mean: 2.583
  Toxicity Index TI18 Mean: 2.583
  Toxicity Index TI19 Mean: 2.583
  Toxicity Index TI20 Mean: 2.944
  Toxicity Index TI21 Mean: 3.469
CYP2C8 gene locus; 30 recipient subjects, rs1058932, heterozygous TC vs homozygous CC, P 0.020
  Coef, regression TI1 versus CYP2C8_2_31, TUBB2: predictor CYP2C8_2_31: −1.1100
CYP2C8 gene locus; multivariable analysis best model, cycle 4, rs17110453, AA = 1, CA = 0, P-value 0.033
  Para. Est., TI4 vs CYP2C8_1C (multivariable): −1.267
CYP2C8 gene locus; multivariable regression with TUBB2, cycle 1, rs1058932, CC = 1, TC = 0, P-value 0.020
  Para. Est., TI1 vs CYP2C8_2_31 (multivariable): −1.110
CYP2C8 gene locus; univariate linear regression, cycle 1, rs1058932, CC = 1, TC = 0, P-value 0.021
  Para. Est., TI1 vs CYP2C8_2_31: −1.168
CYP2C8 gene locus; univariate linear regression, cycle 4, rs17110453, AA = 1, CA = 0, P-value 0.033
  Para. Est., TI4 vs CYP2C8_1C: −1.267
